Source: ChEMBL document CHEMBL4480359, “Phosphotyrosine prodrugs: design, synthesis and anti-STAT3 activity of ISS-610 aryloxy triester phosphoramidate prodrugs” (Medchemcomm, 2019)
Activity calls are given as the source filed them. No cut-off for these calls is given here.

Columns and labels:
[1] = molecular target: Signal transducer and activator of transcription 3 (Homo sapiens) (UniProt P40763); assay: Inhibition of STAT3 dimerization in human MDA-MB-231 cells assessed as down-regulation of survivin protein expression at 0.1 to 100 uM after 24 hrs by Western blot analysis; type: cell-based
Sequence of Signal transducer and activator of transcription 3 (Homo sapiens) (P40763 whole entry): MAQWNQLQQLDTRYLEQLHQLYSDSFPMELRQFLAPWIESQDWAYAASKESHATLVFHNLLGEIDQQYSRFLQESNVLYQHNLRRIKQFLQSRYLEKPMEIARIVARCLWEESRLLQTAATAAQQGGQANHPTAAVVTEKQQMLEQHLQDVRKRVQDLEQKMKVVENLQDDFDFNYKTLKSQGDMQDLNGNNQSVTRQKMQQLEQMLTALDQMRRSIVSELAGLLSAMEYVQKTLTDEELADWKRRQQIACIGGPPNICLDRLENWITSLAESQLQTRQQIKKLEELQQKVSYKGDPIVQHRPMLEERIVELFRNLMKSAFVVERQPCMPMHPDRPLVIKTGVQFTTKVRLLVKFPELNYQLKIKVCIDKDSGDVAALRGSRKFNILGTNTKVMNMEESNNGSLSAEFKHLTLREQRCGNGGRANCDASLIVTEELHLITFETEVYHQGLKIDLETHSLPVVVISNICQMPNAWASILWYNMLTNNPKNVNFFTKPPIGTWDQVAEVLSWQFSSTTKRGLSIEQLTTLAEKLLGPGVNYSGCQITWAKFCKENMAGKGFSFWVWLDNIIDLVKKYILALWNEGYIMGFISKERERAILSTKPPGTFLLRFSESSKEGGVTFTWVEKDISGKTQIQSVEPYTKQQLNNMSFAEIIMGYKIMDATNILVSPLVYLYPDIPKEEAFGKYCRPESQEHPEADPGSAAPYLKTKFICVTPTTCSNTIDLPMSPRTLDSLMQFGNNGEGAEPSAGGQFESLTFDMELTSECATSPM

[2] = molecular target: Signal transducer and activator of transcription 3 (Homo sapiens) (UniProt P40763); assay: Inhibition of STAT3 dimerization in human MDA-MB-231 cells assessed as down-regulation of Bcl-xl protein expression at 0.1 to 100 uM after 24 hrs by Western blot analysis; type: cell-based
[3] = molecular target: Signal transducer and activator of transcription 3 (Homo sapiens) (UniProt P40763); assay: Inhibition of STAT3 dimerization in human MDA-MB-231 cells assessed as down-regulation of survivin protein expression at 30 uM after 24 hrs by Western blot analysis; type: cell-based
[4] = Stability in human serum assessed as phosphorus peak formation measured over 12 hrs by [31P]-NMR analysis; type: ADME, cell-free
[5] = Stability in human serum incubated for 12 hrs by mass spectrometric analysis; type: ADME, cell-free

SMILES | inhibition [2] | Stability [4] | Stability [5] | inhibition [1] | inhibition [3]
CC(C)C[C@H](NC(=O)[C@H](Cc1ccc(OP(=O)(O)O)cc1)NC(=O)c1ccc(C#N)cc1)C(=O)O | inactive |  |  | inactive | 
COC(=O)[C@H](C)NP(=O)(Oc1ccc(C[C@H](NC(=O)c2ccc(C#N)cc2)C(=O)N[C@@H](CC(C)C)C(=O)OC)cc1)Oc1cccc2ccccc12 (some centres undefined) | Active |  |  | Active | Active

Now from value to compound, other results behind:

inhibition [2] | Stability [4] | Stability [5] | SMILES | inhibition [1] | inhibition [3]
inactive |  |  | COC(=O)[C@H](CC(C)C)NC(=O)[C@H](Cc1ccc(OP(=O)(O)O)cc1)NC(=O)c1ccc(C#N)cc1 | inactive | 
Active |  |  | COC(=O)[C@H](CC(C)C)NC(=O)[C@H](Cc1ccc(OP(=O)(N[C@@H](C)C(=O)OCc2ccccc2)Oc2cccc3ccccc23)cc1)NC(=O)c1ccc(C#N)cc1 (some centres undefined) | Active | 
Active | Stable | Stable | COC(=O)[C@H](CC(C)C)NC(=O)[C@H](Cc1ccc(OP(=O)(N[C@@H](C)C(=O)OC(C)C)Oc2cccc3ccccc23)cc1)NC(=O)c1ccc(C#N)cc1 (some centres undefined) | Active | Active
